In patent US8546381B2, “Bridged heterocyclic compounds and methods of use” (Medivation Technologies, Inc., priority 2008, dated 2013):

Assays:
[1] = biological target: T1, human recombinant adrenergic α1D receptor (Homo sapiens, UniProt P25100); experiment: Adrenergic α1D radioligand binding ([3H]Prozosin); conditions: 1 μM; for inhibition at 1 µM: read-out: Adrenergic α1D, inhibition of ligand binding (1 μM)
T1 construct: expressed in transfected cells; host or cells: HEK-293 cells
T1 sequence (P25100 1-572): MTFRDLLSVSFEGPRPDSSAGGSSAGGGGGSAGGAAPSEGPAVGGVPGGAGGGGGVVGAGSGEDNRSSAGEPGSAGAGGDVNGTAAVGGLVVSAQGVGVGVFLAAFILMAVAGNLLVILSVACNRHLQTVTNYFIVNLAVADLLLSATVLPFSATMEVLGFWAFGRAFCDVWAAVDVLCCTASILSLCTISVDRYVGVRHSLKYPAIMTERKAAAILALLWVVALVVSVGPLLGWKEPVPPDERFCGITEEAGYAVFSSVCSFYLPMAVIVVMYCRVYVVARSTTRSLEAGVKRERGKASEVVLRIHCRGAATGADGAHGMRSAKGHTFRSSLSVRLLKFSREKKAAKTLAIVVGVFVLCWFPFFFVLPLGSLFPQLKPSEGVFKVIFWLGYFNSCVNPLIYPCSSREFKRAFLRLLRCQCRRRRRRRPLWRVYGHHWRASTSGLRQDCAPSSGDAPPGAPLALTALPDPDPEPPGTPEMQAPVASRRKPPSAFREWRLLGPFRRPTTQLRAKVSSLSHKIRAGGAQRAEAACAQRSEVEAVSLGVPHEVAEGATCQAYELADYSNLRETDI
Experimental: To evaluate in radioligand binding assays the activity of compounds of the invention, human recombinant adrenergic α1D receptor expressed in human embryonic kidney (HEK-293) cells (Kenny, B. A. et al. Br. J. Pharmacol. 115(6):981, 1995) in a 50 mM Tris-HCl buffer, pH 7.4, was used. Compounds of invention were incubated with 0.6 nM [^3H]Prozosin for 60 minutes at 25° C. Non-specific binding was estimated in the presence of 10 μM phentolamine. Receptor proteins were filtered and washed, the filters were then counted to determine [^3H]Prozosin specifically bound. Compounds were screened at 1 μM or lower, using 1% DMSO as vehicle. Biochemical assay results are presented as the percent inhibition of specific binding in Table 3.

[2] = biological target: T2, human recombinant serotonin (5-Hydroxytryptamine) 5-HT7 receptor (Homo sapiens, UniProt P34969); experiment: Serotonin 5-HT7 radioligand binding ([3H]LSD); conditions: read-out: Serotonin 5-HT7, inhibition of ligand binding (1 μM)
T2 construct: expressed in transfected cells; host or cells: CHO cells
T2 sequence (P34969 whole entry): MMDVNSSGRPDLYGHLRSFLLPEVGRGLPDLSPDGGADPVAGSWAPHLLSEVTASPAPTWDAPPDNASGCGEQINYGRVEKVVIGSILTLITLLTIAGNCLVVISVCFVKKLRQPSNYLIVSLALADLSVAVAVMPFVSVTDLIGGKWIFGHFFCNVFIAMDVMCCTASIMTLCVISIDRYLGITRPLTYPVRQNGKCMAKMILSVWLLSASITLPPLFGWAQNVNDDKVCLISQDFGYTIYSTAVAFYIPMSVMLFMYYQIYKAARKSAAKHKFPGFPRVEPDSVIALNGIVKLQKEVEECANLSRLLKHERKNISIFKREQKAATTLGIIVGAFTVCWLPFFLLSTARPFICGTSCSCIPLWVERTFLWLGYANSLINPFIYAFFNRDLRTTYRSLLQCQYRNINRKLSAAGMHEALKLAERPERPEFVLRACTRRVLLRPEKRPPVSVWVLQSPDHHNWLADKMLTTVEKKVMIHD
Experimental: To evaluate in radioligand binding assays the activity of compounds of the invention, human recombinant serotonin (5-Hydroxytryptamine) 5-HT7 receptor expressed in Chinese hamster ovary (CHO) cells (Roth, B. L. et al., J. Pharmacol. Exp. Ther. 268:1403, 1994; Shen, Y. et al., J. Biol. Chem. 268:18200, 1993) in a modified Tris-HCl buffer (50 mM Tris-HCl, pH 7.4, 10 mM MgCl2, 0.5 mM EDTA) was used. Compounds of invention were incubated with 5.5 nM [^3H] Lysergic acid diethylamide (LSD) for 2 hours at 25° C. Non-specific binding was estimated in the presence of 10 μM Serotonin (5-HT). Receptor proteins were filtered and washed, the filters were then counted to determine [^3H]LSD specifically bound. Compounds were screened at 1 μM or lower, using 1% DMSO as vehicle. Biochemical assay results are presented as the percent inhibition of specific binding in Table 4.

SMILES | inhibition at 1 µM [1] [%] | Adrenergic α1D, inhibition of ligand binding (1 μM) [1] [%] | inhibition at 1 µM [2] [%]
CN1C2CCC1c1c(n(CCC(=O)N3CCNC(=O)C3)c3ccc(Cl)cc13)C2 (stereo not drawn) [Compound 3] | 6 |  | 
CC(=O)N1CCN(C(=O)CCn2c3c(c4cc(Cl)ccc42)C2CCC(C3)N2C)CC1 (stereo not drawn) [Compound 8] | 8 |  | 
CN1C2CCC1c1c(n(CCC(=O)N3CCNCC3)c3ccc(Cl)cc13)C2 (stereo not drawn) [Compound 9] | 9 |  | 
CN1C2CCC1c1c(n(CCC(=O)N3CC[S+]([O-])CC3)c3ccc(Cl)cc13)C2 (stereo not drawn) [Compound 10] | 7 |  | 
CN1C2CCC1c1c(n(CCC(=O)N3CCS(=O)(=O)CC3)c3ccc(Cl)cc13)C2 (stereo not drawn) [Compound 11] | -11 |  | 
CN1C2CCC1c1c(n(CCC(=O)N3CCSCC3)c3ccc(Cl)cc13)C2 (stereo not drawn) [Compound 12] | 3 |  | 
Cc1ccc2c(c1)c1c(n2CCc2ccc(C)nc2)CC2CCC1N2C (stereo not drawn) [Compound 32] | 53 |  | 
CN1C2CCC1c1c(n(CCc3ccc(C(F)(F)F)nc3)c3ccc(Cl)cc13)C2 (stereo not drawn) [Compound 34] | 61 | 56.0 | 
CN1C2CCC1c1c(n(CCCc3ccc(C(F)(F)F)nc3)c3ccc(Cl)cc13)C2 (stereo not drawn) [Compound 37] | 12 |  | 
Cc1ccc(CCCn2c3c(c4cc(Cl)ccc42)C2CCC(C3)N2C)cn1 (stereo not drawn) [Compound 38] | 50 |  | 
CN1C2CCC1c1c(n(CCCc3ccc(Cl)cc3)c3ccc(Cl)cc13)C2 (stereo not drawn) [Compound 39] | 11 |  | 
Cc1ccc(C(O)Cn2c3c(c4cc(Cl)ccc42)C2CCC(C3)N2C)cn1 (stereo not drawn) [Compound 52] | 33 |  | 
Cc1ccc2c(c1)c1c(n2CC(C)(O)c2ccc(Cl)cc2)CC2CCC1N2C (stereo not drawn) [Compound 54] | 25 |  | 
CCOC(=O)CCn1c2c(c3cc(Cl)ccc31)C1CCC(C2)N1C (stereo not drawn) [Compound 70, ethyl 3-(2-chloro-11-methyl-5,6,7,8,9,10-hexahydro-7,10-iminocyclohept[b]indol-5-yl)propanoate] | 26 |  | 
Cc1ccc2c(c1)c1c(n2CCc2ccc(C(F)(F)F)nc2)CC2CCC1N2C (stereo not drawn) [Compound 71] | 62 | 63.0 | 
CN1C2CCC1c1c(n(CCC(=O)O)c3ccc(Cl)cc13)C2 (stereo not drawn) [Compound 72] | -9 |  | 
CN1C2CCC1c1c(n(CCC(N)=O)c3ccc(Cl)cc13)C2 (stereo not drawn) [Compound 73] | 19 |  | 
CN1C2CCC1c1c(n(CCc3ccc(C(F)(F)F)nc3)c3cc(F)c(Cl)cc13)C2 (stereo not drawn) [Compound 77] | 37 |  | 
Cc1ccc(CCn2c3c(c4cc(Cl)ccc42)C2CCC(C3)N2C)cn1 (stereo not drawn) [Compound 79] | 72 |  | 

SMILES | inhibition at 1 µM [1] [%] | Adrenergic α1D, inhibition of ligand binding (1 μM) [1] [%] | inhibition at 1 µM [2] [%]
CN1C2CCC1c1c(n(CCc3cccnc3)c3ccc(Cl)cc13)C2 (stereo not drawn) [Compound 80] | 54 |  | 
Cc1ccc2c(c1)c1c(n2CCc2cnc(C)nc2)CC2CCC1N2C (stereo not drawn) [Compound 81] | 42 |  | 
Cc1ncc(CCn2c3c(c4cc(Cl)ccc42)C2CCC(C3)N2C)cn1 (stereo not drawn) [Compound 82] | 40 |  | 
COc1ccc(CCn2c3c(c4cc(C)ccc42)C2CCC(C3)N2C)cc1 (stereo not drawn) [Compound 83] | 80 |  | 
COc1ccc(CCn2c3c(c4cc(Cl)ccc42)C2CCC(C3)N2C)cc1 (stereo not drawn) [Compound 84] | 19 |  | 
Cc1ccc2c(c1)c1c(n2CCCc2ccc(Cl)cc2)CC2CCC1N2C (stereo not drawn) [Compound 85] | 43 |  | 
Cc1ccc2c(c1)c1c(n2CCc2cccnc2)CC2CCC1N2C (stereo not drawn) [Compound 86] | 87 |  | 
CN1C2CCC1c1c(n(CCc3cncc(Cl)c3)c3ccc(Cl)cc13)C2 (stereo not drawn) [Compound 87] | 70 |  | 
Cc1ccc2c(c1)c1c(n2CCc2cncc(Cl)c2)CC2CCC1N2C (stereo not drawn) [Compound 88] | 73 |  | 
Cc1cncc(CCn2c3c(c4cc(Cl)ccc42)C2CCC(C3)N2C)c1 (stereo not drawn) [Compound 89] | 44 |  | 
Cc1cncc(CCn2c3c(c4cc(C)ccc42)C2CCC(C3)N2C)c1 (stereo not drawn) [Compound 90] | 40 |  | 
Cc1ccc2c(c1)c1c(n2CC(O)c2ccc(C)nc2)CC2CCC1N2C (stereo not drawn) [Compound 91] | 24 |  | 
Cc1ccc(CCn2c3c(c4ccccc42)C2CCC(C3)N2C)cn1 (stereo not drawn) [Compound 92] | 8 |  | 
Cc1ccc2c(c1)c1c(n2CC(=O)N2CCCCC2)CC2CCC1N2C (stereo not drawn) [Compound 93] | -18 |  | 
CN1[C@@H]2CC[C@H]1c1c(n(CCc3ccc(F)cc3)c3ccc(F)cc13)C2 [Compound 94, (+)-(7S,10R)-2-Fluoro-5-(4-fluorophenethyl)-11-methyl-5,6,7,8,9,10-hexahydro-7,10-iminocyclohept[b]indole] | 77 |  | 
CN1[C@H]2CC[C@@H]1c1c(n(CCc3ccc(F)cc3)c3ccc(F)cc13)C2 [Compound 95, (−)-(7R,10S)-2-Fluoro-5-(4-fluorophenethyl)-11-methyl-5,6,7,8,9,10-hexahydro-7,10-iminocyclohept[b]indole] | 82 |  | 
CN1[C@@H]2CC[C@H]1c1c(n(CCc3ccc(C(F)(F)F)nc3)c3ccccc13)C2 [Compound 97] | 19 |  | 
CN1[C@@H]2CC[C@H]1c1c(n(CC(C)(O)c3ccc(F)cc3)c3ccccc13)C2 (stereo partly drawn) [Compound 99] | 20 |  | 
CN1[C@@H]2CC[C@H]1c1c(n(CC(=O)N3CCCCC3)c3ccccc13)C2 [Compound 101] | 74 |  | 

SMILES | inhibition at 1 µM [1] [%] | Adrenergic α1D, inhibition of ligand binding (1 μM) [1] [%] | inhibition at 1 µM [2] [%]
Cc1ccc(CCn2c3c(c4ccccc42)[C@@H]2CC[C@H](C3)N2C)cn1 [Compound 102] | 1 |  | 
Cc1ccc2c(c1)c1c(n2CCC#N)CC2CCC1N2C (stereo not drawn) [Compound 103] | 86 |  | 
CN1C2CCC1c1c(n(CCC#N)c3ccc(Cl)cc13)C2 (stereo not drawn) [Compound 107] | 47 |  | 
CN1C2CCC1c1c(n(CC(=O)c3ccccc3)c3ccc(Cl)cc13)C2 (stereo not drawn) [Compound 110] | 40 |  | 
CN1C2CCC1c1c(n(CC(=O)c3ccc(Cl)cc3)c3ccc(Cl)cc13)C2 (stereo not drawn) [Compound 111] | 40 |  | 78
Cc1ccc2c(c1)c1c(n2CCc2nc(-c3ccccc3)cs2)CC2CCC1N2C (stereo not drawn) [Compound 114] | 68 |  | 
C/C(=C\n1c2c(c3cc(C)ccc31)C1CCC(C2)N1C)c1ccc(Cl)cc1 (stereo not drawn) [Compound 116] | 40 |  | 92
C/C(=C/n1c2c(c3ccccc31)[C@@H]1CC[C@H](C2)N1C)c1ccc(F)cc1 [Compound 121] | 80 |  | 
C/C(=C\n1c2c(c3cc(Cl)ccc31)C1CCC(C2)N1C)c1ccc(F)cc1 (stereo not drawn) [Compound 123] | 79 |  | 97
C/C(=C\n1c2c(c3cc(C)ccc31)C1CCC(C2)N1C)c1ccc(F)cc1 (stereo not drawn) [Compound 124] | 67 |  | 91
C/C(=C\n1c2c(c3cc(Cl)ccc31)C1CCC(C2)N1C)c1ccc(Cl)cc1 (stereo not drawn) [Compound 125] | 54 |  | 95
COc1ccc(/C(C)=C/n2c3c(c4cc(Cl)ccc42)C2CCC(C3)N2C)cc1F (stereo not drawn) [Compound 136] | 61 |  | 79
CN1C2CCC1c1c(n(C#Cc3ccc(F)cc3)c3ccc(Cl)cc13)C2 (stereo not drawn) [Compound 138] | 60 |  | 91
Cc1ccc(C#Cn2c3c(c4cc(Cl)ccc42)C2CCC(C3)N2C)cn1 (stereo not drawn) [Compound 139] | 65 |  | 97
Cc1ccc2c(c1)c1c(n2C#Cc2ccc(F)cc2)CC2CCC1N2C (stereo not drawn) [Compound 141] | 20 |  | 48
CN1C2CCC1c1c(n(C#Cc3ccc(Cl)cc3)c3ccc(Cl)cc13)C2 (stereo not drawn) [Compound 142] | 27 |  | 57
COc1ccc(C(C)(O)Cn2c3c(c4cc(Cl)ccc42)C2CCC(C3)N2C)cc1F (stereo not drawn) [Compound 160] | 0 |  | 75
COc1ccc(C(C)(O)Cn2c3c(c4cc(C)ccc42)C2CCC(C3)N2C)cc1F (stereo not drawn) [Compound 161] | 30 |  | 69
Cc1ccc2c(c1)c1c(n2C(=O)Cc2ccc(Cl)cc2)CC2CCC1N2C (stereo not drawn) [Compound 162] | 34 |  | 43
